Data published in US8586599B2, “Polymorphic forms of 6-(1-methyl-1H-pyrazol-4-yl)-2-{3-[5-(2-morpholin-4-yl-ethoxy)-pyrimidin-2-yl]-benzyl}-2H-pyridazin-3-one dihydrogenphosphate and processes of manufacturing thereof” (Merck Patent GmbH, priority 2008, dated 2013).
≈ marks a conversion by molar mass, not a printed value.

What was measured:
[1] = Competitive slurry conversion of crystalline modifications A1 and NF3 in organic solvents (Example 10); assay type: physicochemical; conditions: 25° C. and 50° C., in words
Method: PTFE-coated stirring rods were inserted into the dispersions prior to sealing the vials. Dispersions were agitated in closed vials for 5 days, using a magnetic stirrer, at 25° C. and 50° C., respectively. Solid-state residues were filtered, and analyzed by XRD to monitor morphic form after solvent slurrying.

[2] = Kinetic solubility determination in water:acetone 30:70 (v:v) after 2 hours (Example 14)
Method: (§2) The dispersion was agitated at RT for 2 hours at 450 rpm. After filtration of the dispersion after 2 hours, the filtrate is analysed by HPLC (dilution may be necessary before analysis).

[3] = Water Vapour Sorption Isotherm (25° C.); assay type: physicochemical; conditions: for Relative humidity range with small water uptake levels upon adsorption / Relative humidity above which pronounced water uptake levels are observed / Water uptake levels at elevated relative humidity (hydrate formation) / Relative humidity above which re-conversion to the hydrate form occurs upon adsorption / Relative humidity below which hydrate water is lost: 25° C.; for Relative humidity below which hydrate water is lost: desorption
Description: The crystalline modifications of the present invention can be characterized according to standard methods which can be found e.g. in Rolf Hilfiker, ‘Polymorphism in the Pharmaceutical Industry’, Wiley-VCH, Weinheim 2006, and references therein, e.g. X-Ray diffraction (XRD; chapter 6), IR and Raman spectroscopy (chapter 5), Differential Scanning Calorimetry (DSC) and Thermogravimetric Analysis (TGA) (chapter 3), Water Vapour Sorption Studies (chapter 9), or which can be found e.g. in H. G. Brittain (editor), Polymorphism in Pharmaceutical Solids, Vol. 95, Marcel Dekker Inc., New York 1999 (chapter 6: all there mentioned techniques).
Pronounced water uptake levels are observed above 70% RH (crystalline modification A type a) and above 90% RH (crystalline modification A type b), respectively, which results in formation of dihydrate crystalline modification H1 (water uptake levels of approx. 6 wt %) at elevated relative humidity (RH).
Pronounced water uptake levels are observed above 70% RH, which results in formation of crystalline hydrate modification NF5 (water uptake levels of approx. 5-6 wt %) at elevated relative humidity (RH).

[4] = Stability in aqueous solution, salt compared to free base; assay type: physicochemical; conditions: in words, no data shown
[5] = Solubility determination in water (Example 9); assay type: physicochemical; conditions: for pH value: solubility sample in water; for solubility at 1 h / solubility at 2 h: thermodynamic from solid, water, ambient temperature, maximal possible concentration 10 mg/mL
Method: The mixture is stirred at 1000 rpm on a magnetic stirring plate at ambient temperature. At the sampling point 100 μL of the respective solution/suspension are transferred to a 500 μL Eppendorff cap and are centrifuged for 5 min at 14000 rpm.

[6] = Competitive slurry conversion of crystalline modifications A1 and NF5 in water (Example 11); assay type: physicochemical; conditions: aqueous slurrying at 25° C., in words
Method: (§1) A PTFE-coated stirring rod was inserted into the dispersion prior to sealing the vial. The dispersion was agitated in closed vial for 12 days, using a magnetic stirrer, at 25° C. The solid-state residue was filtered, and analyzed by XRD to monitor morphic form after solvent slurrying.

[7] = Competitive slurry conversion of crystalline modifications H1 and NF3 in water (Example 13); assay type: physicochemical; conditions: aqueous slurrying at 25° C., in words
Method: A PTFE-coated stirring rod was inserted into the dispersion prior to sealing the vial. The dispersion was agitated in closed vial for 5 days, using a magnetic stirrer, at 25° C. The solid-state residue was filtered, and analyzed by XRD to monitor morphic form after solvent slurrying.

[8] = Competitive slurry conversion of crystalline modifications H1 and NF5 in water (Example 12); assay type: physicochemical; conditions: aqueous slurrying at 25° C., in words
Method: as §1

physchem = conditions: organic solvent or mixture, thermodynamic from solid
Method: as §2

Cn1cc(-c2ccc(=O)n(Cc3cccc(-c4ncc(OCCN5CCOCC5)cn4)c3)n2)cn1.O=P(O)(O)O [crystalline modification A1, 6-(1-methyl-1H-pyrazol-4-yl)-2-{3-[5-(2-morpholin-4-yl-ethoxy)-pyrimidin-2-yl]-benzyl}-2H-pyridazin-3-one dihydrogenphosphate anhydrate]
Relative stability of forms A1 and NF3 [1]: more stable form | Solubility water:acetone (30:70, v:v) after 2 h ([2]; kinetic solubility, RT, 2 hours, 450 rpm): 18200 µg/mL | Relative humidity range with small water uptake levels upon adsorption ([3]; type a): 0-70 % relative humidity (RH) | Relative humidity above which pronounced water uptake levels are observed ([3]; type a, results in formation of dihydrate H1): above 70 % RH | Relative humidity range with small water uptake levels upon adsorption ([3]; type b): 0-90 % RH | Relative humidity above which pronounced water uptake levels are observed ([3]; type b, results in formation of dihydrate H1): above 90 % RH | Water uptake levels at elevated relative humidity (hydrate formation) ([3]; listed as A1): approx. 6 wt % | Physical stable form in the humidity range 0% up to (upper limit) ([3]; varying relative humidity conditions): at least 70 % RH

Cn1cc(-c2ccc(=O)n(Cc3cccc(-c4ncc(OCCN5CCOCC5)cn4)c3)n2)cn1.O=P(O)(O)O [dihydrogenphosphate, 6-(1-methyl-1H-pyrazol-4-yl)-2-{3-[5-(2-morpholin-4-yl-ethoxy)-pyrimidin-2-yl]-benzyl}-2H-pyridazin-3-one dihydrogenphosphate]
Stability in aqueous solution compared to free base [4]: significantly superior stability in aqueous solution | Solubility in aqueous solutions compared to free base ([5]; in words): significantly higher solubility | pH value ([5]; sample point 1 h): 3.91 | pH value ([5]; sample point 2 h): 3.97 | solubility at 1 h ([5]; sample point 1 h): 9860 µg/mL | solubility at 2 h ([5]; sample point 2 h): > 10000 µg/mL

Cn1cc(-c2ccc(=O)n(Cc3cccc(-c4ncc(OCCN5CCOCC5)cn4)c3)n2)cn1.O.O=P(O)(O)O [crystalline modification NF5, 6-(1-methyl-1H-pyrazol-4-yl)-2-{3-[5-(2-morpholin-4-yl-ethoxy)-pyrimidin-2-yl]-benzyl}-2H-pyridazin-3-one dihydrogenphosphate hydrate]
Relative humidity above which re-conversion to the hydrate form occurs upon adsorption [3]: > 70 % RH | Relative humidity below which hydrate water is lost [3]: < 40 % relative humidity (RH) | Relative stability of forms A1 and NF5 [6]: more stable form in an aqueous dispersion system

Cn1cc(-c2ccc(=O)n(Cc3cccc(-c4ncc(OCCN5CCOCC5)cn4)c3)n2)cn1.O.O.O=P(O)(O)O [crystalline modification H1, 6-(1-methyl-1H-pyrazol-4-yl)-2-{3-[5-(2-morpholin-4-yl-ethoxy)-pyrimidin-2-yl]-benzyl}-2H-pyridazin-3-one dihydrogenphosphate dihydrate]
Relative humidity above which re-conversion to the hydrate form occurs upon adsorption [3]: > 70 % RH | Relative humidity below which hydrate water is lost [3]: < 40 % relative humidity (RH) | Relative stability of forms H1 and NF3 [7]: more stable form in an aqueous dispersion system | Relative stability of forms H1 and NF5 [8]: stable form in an aqueous dispersion system

Cn1cc(-c2ccc(=O)n(Cc3cccc(-c4ncc(OCCN5CCOCC5)cn4)c3)n2)cn1.O=P(O)(O)O [crystalline modification NF3, 6-(1-methyl-1H-pyrazol-4-yl)-2-{3-[5-(2-morpholin-4-yl-ethoxy)-pyrimidin-2-yl]-benzyl}-2H-pyridazin-3-one dihydrogenphosphate]
Solubility level after 2 hours compared to form A1 ([2]; water:acetone (30:70, v:v), in words): lower solubility level | Relative humidity range with small water uptake levels upon adsorption [3]: 0-70 % relative humidity (RH) | Water uptake levels at elevated relative humidity (hydrate formation) ([3]; listed as NF3): 5-6 wt % | Relative humidity above which pronounced water uptake levels are observed ([3]; results in formation of hydrate NF5): above 70 % RH | solubility at 2 h (physchem): 10600 µg/mL

Cn1cc(-c2ccc(=O)n(Cc3cccc(-c4ncc(OCCN5CCOCC5)cn4)c3)n2)cn1 [free base, 6-(1-methyl-1H-pyrazol-4-yl)-2-{3-[5-(2-morpholin-4-yl-ethoxy)-pyrimidin-2-yl]-benzyl}-2H-pyridazin-3-one]
solubility at 1 h ([5]; sample point 1 h): 167 µg/mL (≈ 353 µM) | solubility at 2 h ([5]; sample point 2 h): 156 µg/mL (≈ 329 µM)
